US4261892A, “2,4,6-Tris-(substituted-amino)-s-triazines” (American Cyanamid Company, priority 1979, dated 1981)
Where two headings read alike, the source gives them in different places.

Key:
[1] = system: arthritic paw swelling / joint and bone deterioration; details: literature (Wong et al., Bobalick et al.); cited from earlier work
[2] = system: Adjuvant Arthritis In Rats; test: Adjuvant-induced arthritis in rats (chronic inflammation accompanied by joint destruction); type: in vivo, Royal Hart, Wistar strain rats; details: for inhibition in vivo at 0.25 mg/kg / inhibition in vivo at 0.5 mg/kg / inhibition in vivo at 2 mg/kg / inhibition in vivo at 1 mg/kg / inhibition in vivo at 18.8 mg/kg / inhibition in vivo at 37.5 mg/kg / inhibition in vivo at 75 mg/kg / inhibition in vivo at 150 mg/kg: Rattus norvegicus
Experimental: Groups of three Royal Hart, Wistar strain rats weighing 200±10 grams each were injected intradermally in the right hind paw with Freund's adjuvant (dried human tubercle bacilli in a mineral oil vehicle) at a dose of 2 mg./kg. of body weight. […] On the 14th and 21st day post challenge the diameter of the injected paw (primary lesion) was measured by micrometer caliper. The volume of inflamed paws were estimated from these measurements and the results are expressed as percent inhibition of swelling as compared to controls. At the same time, the other inflamed sites, such as ears, paws and tail (secondary lesions) were observed and each rat was graded as to degree of inflammation and swelling present. The grading is based on a scale of 0 to 24 where 0 represents a complete absence of induced arthritic nodules and 24 represents the maximum degree of inflammation. The mean grade for each treated group is calculated and the effects of each compound are expressed as percent inhibition of the control grade.

[3] = oral 0.25 mg./kg. once daily days 0-13, Day 14
[4] = oral 0.25 mg./kg. once daily days 0-13, Day 21
[5] = oral 0.5 mg./kg. once daily days 0-13, Day 14
[6] = oral 0.5 mg./kg. once daily days 0-13, Day 21
[7] = oral 1 mg./kg. once daily days 0-13, Day 14
[8] = oral 1 mg./kg. once daily days 0-13, Day 21
[9] = oral 2 mg./kg. once daily days 0-13, Day 14
[10] = oral 2 mg./kg. once daily days 0-13, Day 21
[11] = oral 18.8 mg./kg. once daily days 0-13, Day 14
[12] = oral 18.8 mg./kg. once daily days 0-13, Day 21
[13] = oral 37.5 mg./kg. once daily days 0-13, Day 14
[14] = oral 37.5 mg./kg. once daily days 0-13, Day 21
[15] = oral 75 mg./kg. once daily days 0-13, Day 14
[16] = oral 75 mg./kg. once daily days 0-13, Day 21
[17] = oral 150 mg./kg. once daily days 0-13, Day 14
[18] = oral 150 mg./kg. once daily days 0-13, Day 21

COc1ccc2c(c1)c(CC(=O)O)c(C)n2C(=O)c1ccc(Cl)cc1 [Indomethacin]
arthritic paw swelling [1]: inhibit arthritic paw swelling | joint and bone deterioration [1]: prevent joint and bone deterioration | inhibition in vivo at 0.25 mg/kg ([2]; 336 h, oral 0.25 mg./kg. once daily days 0-13, Day 14, read-out: % Inhibition of Swelling (primary lesion) Day 14): 30% | inhibition in vivo at 0.5 mg/kg ([2]; 336 h, oral 0.5 mg./kg. once daily days 0-13, Day 14, read-out: % Inhibition of Swelling (primary lesion) Day 14): 40% | inhibition in vivo at 2 mg/kg ([2]; 336 h, oral 2 mg./kg. once daily days 0-13, Day 14, read-out: % Inhibition of Swelling (primary lesion) Day 14): 51% | inhibition in vivo at 0.25 mg/kg ([2]; 504 h, oral 0.25 mg./kg. once daily days 0-13, Day 21, read-out: % Inhibition of Swelling (primary lesion) Day 21): 4% | inhibition in vivo at 0.5 mg/kg ([2]; 504 h, oral 0.5 mg./kg. once daily days 0-13, Day 21, read-out: % Inhibition of Swelling (primary lesion) Day 21): 20% | inhibition in vivo at 1 mg/kg ([2]; 504 h, oral 1 mg./kg. once daily days 0-13, Day 21, read-out: % Inhibition of Swelling (primary lesion) Day 21): 19% | inhibition in vivo at 2 mg/kg ([2]; 504 h, oral 2 mg./kg. once daily days 0-13, Day 21, read-out: % Inhibition of Swelling (primary lesion) Day 21): 24% | inhibition in vivo at 1 mg/kg ([2]; po, 336 h, read-out: % Inhibition of Swelling (primary lesion) Day 14): 46% | % Inhibition of Control Grade (secondary lesion) Day 14 [2, 3]: 22% | Mean Weight Gain (grams) Day 14 [2, 3]: 51 grams | % Inhibition of Control Grade (secondary lesion) Day 21 [2, 4]: 4% | Mean Weight Gain (grams) Day 21 [2, 4]: 57 grams | Dead/Treated at 21 Days ([2]; oral 0.25 mg./kg. once daily days 0-13): 0/9 | % Inhibition of Control Grade (secondary lesion) Day 14 [2, 5]: 25% | Mean Weight Gain (grams) Day 14 [2, 5]: 53 grams | % Inhibition of Control Grade (secondary lesion) Day 21 [2, 6]: 17% | Mean Weight Gain (grams) Day 21 [2, 6]: 51 grams | Dead/Treated at 21 Days ([2]; oral 0.5 mg./kg. once daily days 0-13): 5/54 | % Inhibition of Control Grade (secondary lesion) Day 14 [2, 7]: 34% | Mean Weight Gain (grams) Day 14 [2, 7]: 63 grams | % Inhibition of Control Grade (secondary lesion) Day 21 [2, 8]: 20% | Mean Weight Gain (grams) Day 21 [2, 8]: 65 grams | Dead/Treated at 21 Days ([2]; oral 1 mg./kg. once daily days 0-13): 9/54 | % Inhibition of Control Grade (secondary lesion) Day 14 [2, 9]: 38% | Mean Weight Gain (grams) Day 14 [2, 9]: 68 grams | % Inhibition of Control Grade (secondary lesion) Day 21 [2, 10]: 25% | Mean Weight Gain (grams) Day 21 [2, 10]: 68 grams | Dead/Treated at 21 Days ([2]; oral 2 mg./kg. once daily days 0-13): 8/57

CCCCC1C(=O)N(c2ccccc2)N(c2ccccc2)C1=O [Phenylbutazone]
inhibition in vivo at 18.8 mg/kg ([2]; 336 h, oral 18.8 mg./kg. once daily days 0-13, Day 14, read-out: % Inhibition of Swelling (primary lesion) Day 14): 31% | inhibition in vivo at 37.5 mg/kg ([2]; 336 h, oral 37.5 mg./kg. once daily days 0-13, Day 14, read-out: % Inhibition of Swelling (primary lesion) Day 14): 56% | inhibition in vivo at 75 mg/kg ([2]; 336 h, oral 75 mg./kg. once daily days 0-13, Day 14, read-out: % Inhibition of Swelling (primary lesion) Day 14): 62% | inhibition in vivo at 150 mg/kg ([2]; 336 h, oral 150 mg./kg. once daily days 0-13, Day 14, read-out: % Inhibition of Swelling (primary lesion) Day 14): 75% | inhibition in vivo at 18.8 mg/kg ([2]; 504 h, oral 18.8 mg./kg. once daily days 0-13, Day 21, read-out: % Inhibition of Swelling (primary lesion) Day 21): 7% | inhibition in vivo at 37.5 mg/kg ([2]; 504 h, oral 37.5 mg./kg. once daily days 0-13, Day 21, read-out: % Inhibition of Swelling (primary lesion) Day 21): 14% | inhibition in vivo at 75 mg/kg ([2]; 504 h, oral 75 mg./kg. once daily days 0-13, Day 21, read-out: % Inhibition of Swelling (primary lesion) Day 21): 28% | inhibition in vivo at 150 mg/kg ([2]; 504 h, oral 150 mg./kg. once daily days 0-13, Day 21, read-out: % Inhibition of Swelling (primary lesion) Day 21): 44% | % Inhibition of Control Grade (secondary lesion) Day 14 [2, 11]: 4% | Mean Weight Gain (grams) Day 14 [2, 11]: 50 grams | % Inhibition of Control Grade (secondary lesion) Day 21 [2, 12]: 8% | Mean Weight Gain (grams) Day 21 [2, 12]: 45 grams | Dead/Treated at 21 Days ([2]; oral 18.8 mg./kg. once daily days 0-13): 2/21 | % Inhibition of Control Grade (secondary lesion) Day 14 [2, 13]: 18% | Mean Weight Gain (grams) Day 14 [2, 13]: 53 grams | % Inhibition of Control Grade (secondary lesion) Day 21 [2, 14]: 13% | Mean Weight Gain (grams) Day 21 [2, 14]: 53 grams | Dead/Treated at 21 Days ([2]; oral 37.5 mg./kg. once daily days 0-13): 5/39 | % Inhibition of Control Grade (secondary lesion) Day 14 [2, 15]: 27% | Mean Weight Gain (grams) Day 14 [2, 15]: 51 grams | % Inhibition of Control Grade (secondary lesion) Day 21 [2, 16]: 15% | Mean Weight Gain (grams) Day 21 [2, 16]: 50 grams | Dead/Treated at 21 Days ([2]; oral 75 mg./kg. once daily days 0-13): 2/39 | % Inhibition of Control Grade (secondary lesion) Day 14 [2, 17]: 54% | Mean Weight Gain (grams) Day 14 [2, 17]: 40 grams | % Inhibition of Control Grade (secondary lesion) Day 21 [2, 18]: 31% | Mean Weight Gain (grams) Day 21 [2, 18]: 50 grams | Dead/Treated at 21 Days ([2]; oral 150 mg./kg. once daily days 0-13): 2/27
